Assay results published in patent publication US20150302140A1, “IN SILICO IDENTIFICATION OF CANCER MOLECULAR SIGNALING PATHWAYS AND DRUG CANDIDATES” (H. LEE MOFFITT CANCER CENTER AND RESEARCH INSTITUTE, INC., priority 2012, published 2015).
Entries after “also recorded” stand apart in the source; their conditions may differ. Read-outs that look alike come from different tables or passages of the source. Values belong to the molecule of their own block, whether it stands above or below them.

Assays:
Format in all cases: cell-based
[1] = tested on: A2780S; assay: MTS cell proliferation/viability assay, 72 hours drug exposure; conditions: Homo sapiens, log10 of IC50, uM
Description: (§1) Ovarian cancer cell lines were either obtained from the European Collection of Cell Cultures, Salisbury, England (A2780S), or were kind gifts from Dr. Patricia Kruk, Department of Pathology, College of Medicine, University of South Florida, Tampa, Fla., and Susan Murphy, PhD, Dept of OB/GYN, Division of GYN Oncology, Duke University, Durham, N.C. (HeyA8, OVCAR2, OVCAR8, and OVCA420). Cell lines were maintained in RPMI-1640 (Invitrogen; Carlsbad, Calif.) supplemented with 10% fetal bovine serum (Fisher Scientific; Pittsburgh, Pa.), 1% sodium pyruvate, 1% penicillin/streptomycin, and 1% nonessential amino acids (HyClone; Hudson, N.H.). Mycoplasma testing was performed every 6 months following manufacturer's protocol (Lonza, Rockland, Me.).
(§2) The MTS assay was used to assess viability of the OVCA cell lines. For the assays, 3-5×10^4 cells in 100 μL were plated to each well of a 96-well plate and allowed to adhere overnight at 37° C. and 5% CO2. The following day, cells were incubated with increasing concentrations of drug for 72 hours. Cell viability was analyzed using the CellTiter96® MTS assay kit (Promega, Madison, Wis.). Three replicate wells were used for each drug concentration, and an additional three control wells received a diluent control without drug. After drug incubation, the optical density of each well was read at 490 nm using a SpectraMax 190 microplate reader (Molecular Devices Inc., Sunnyvale, Calif.). Percent cell survival was expressed as (control-treated)/(control-blank)×100. All experiments were performed three times, or the minimum number of times to ensure reproducibility and accuracy of the results.

[2] = tested on: HEYA8; assay: as above; conditions: HEY A8, log10 of IC50, uM
Description: as §1, §2

[3] = tested on: OVCA2; assay: as above; conditions: log10 of IC50, uM
Description: as §1, §2

[4] = tested on: OVCA420; assay: as above; conditions: OVCA 420, log10 of IC50, uM
Description: as §1, §2

[5] = tested on: OVCA8; assay: as above; conditions: log10 of IC50, uM
Description: as §1, §2

[6] = tested on: five OVCA cell lines; assay: MTS assay, summary over five OVCA cell lines; conditions: for IC50: five OVCA cell lines, 72 hours, MTS
Description: as §1, §2
The cytotoxic effects of continuous exposure to dasatinib and artesunate were assessed for five OVCA cell lines at 72 hours using the MTS assay (Table 5).

[7] = tested on: HeyA8 OVCA cells; assay: In vitro scratch assay (cell migration); conditions: HeyA8, 25 mM or 50 mM artesunate, imaged days 0-2; DMSO vehicle closed gap within 2 days
Experimental: The effects of pathway inhibition on OVCA cell metastatic properties were investigated using the in vitro scratch assay. HeyA8 OVCA cells were maintained in RPMI 1640 medium (Invitrogen) supplemented with 10% fetal bovine serum (FBS; Fisher Scientific, Pittsburgh, Pa.), 1% sodiumpyruvate, 1% penicillin/streptomycin (Cellgro, Manassas, Va.), and 1% nonessential amino acids (HyClone, Hudson, N.H.). Monolayers, 75-80% confluent, were cultured in serum-free media for 4 hours and then mechanically disrupted to create a wound using a 1 mL pipette tip. Culture plates were washed twice with serum-free media to remove floating cells and then incubated with media containing 10% FBS and either vehicle (dimethylsulfoxide [DMSO]) or drug. The DMSO concentration was maintained below 0.5% so as not to influence cell growth or migration. The underside of the culture plate by the wound area was marked with a Sharpie for reference, and wounds were imaged by phase-contrast microscopy on days 0, 1, and 2.

[8] = tested on: HeyA8 OVCA cell; assay: HeyA8 cell proliferation under artesunate

IC50 [1]: 1.23 µM
Compound: C[C@H]1[C@H](OC(=O)CCC(=O)O)O[C@@H]2O[C@@]3(C)CC[C@H]4[C@H](C)CC[C@@H]1[C@@]24OO3 [Artesunate]
IC50 [2]: 7.92 µM | IC50 [3]: 1.31 µM | IC50 [4]: 19.3 µM | IC50 [5]: 5.9 µM | IC50 ([6]; log10 value, read-out: median IC50 (log 10) (converted)): 4290 nM | IC50 ([6]; log10 values, read-out: range of IC50 (log 10) (converted)): 88.2 to 1290 nM | IC50 ([6]; read-out: median IC50): 7130 nM | IC50 ([6]; read-out: range of IC50): 1230 to 19300 nM | anti-proliferative activity against a panel of OVCA cells ([6]; panel of OVCA cells): anti-proliferative activity | ability of cells to migrate into the denuded area / fill in the gap of a scratch test [7]: impaired the ability of the cells to migrate; also recorded: impaired in their ability to fill in the gap | decrease of HeyA8 OVCA cell proliferation ([8]; 25 mM artesunate): approximately 42% | decrease of HeyA8 OVCA cell proliferation ([8]; 50 mM artesunate): ~64%

IC50 [1]: 0.918 µM
Compound: Cc1nc(Nc2ncc(C(=O)Nc3c(C)cccc3Cl)s2)cc(N2CCN(CCO)CC2)n1 [Dasatinib]
IC50 [2]: 0.215 µM | IC50 [3]: 0.953 µM | IC50 [4]: 0.431 µM | IC50 [5]: 0.37 µM | IC50 ([6]; read-out: mean IC50): 577 nM | IC50 ([6]; read-out: range of IC50): 214 to 953 nM
